Experimental data published in patent US11001590B2, “Pyrazolopyrimidine derivatives” (BAYER ANIMAL HEALTH GMBH, priority 2016, dated 2021).

Tests used:
[1] = log P by HPLC on reversed phase columns (Method L0; [a] acidic, [b] neutral range)
Description: Calibration was done with straight-chain alkan-2-ones (with 3 to 16 carbon atoms) with known log P values (measurement of log P values using retention times with linear interpolation between successive alkanones). Lambda-max-values were determined using UV-spectra from 200 nm to 400 nm and the peak values of the chromatographic signals.

C. elegans Slo-1a = C. elegans Slo-1a (Caenorhabditis elegans, UniProt Q95V25); test: In vitro assay 1: C. elegans Slo-1a, action at a recombinant C. elegans CHO cell line (membrane potential measurement)
[2] = test system: Dirofilaria immitis microfilariae; test: In vitro assay 3: Dirofilaria immitis microfilariae (DIROIM L1), motility; conditions: 72 h, reduction of motility vs negative control, 72 h incubation
[3] = test system: Nippostrongylus brasiliensis; test: In vitro assay 2: Nippostrongylus brasiliensis (NIPOBR), acetylcholine esterase readout; conditions: adult worms, read-out: activity (reduction of AChE compared to negative control); for inhibition at 10 µg/mL: 10 μg/ml (10 ppm); for inhibition at 1 µg/mL: 1 μg/ml (1 ppm)
Description: In Vitro Assay 2: Nippostronqylus Brasiliensis (NIPOBR)
Adult Nippostrongylus brasiliensis were washed with saline buffer containing 100 U/ml penicillin, 0.1 mg/ml streptomycin and 2.5 μg/ml amphotericin B. Test compounds were dissolved in DMSO and worms were incubated in medium in a final concentration of 10 μg/ml (10 ppm) respectively 1 μg/ml (1 ppm). An aliquot of the medium was used to determine the acetylcholine esterase activity in comparison to a negative control. The principle of measuring acetylcholine esterase as readout for anthelmintic activity was described in Rapson et al (1986) and Rapson et al (1987).

[4] = test system: Dirofilaria immitis third-stage larvae; test: In vitro assay 4: Dirofilaria immitis (DIROIM L4), motility of larvae; conditions: 72 h
[5] = test system: Litomosoides sigmodontis third-stage larvae; test: In vitro assay 7: Litomosoides sigmodontis L3 (LTMOSI), motility; conditions: 72 h, reduction of motility vs negative control, 72 h incubation
Description: In Vitro Assay 7: Litomosoides Siqmodontis L3 (LTMOSI)
10 Litomosoides sigmodontis third-stage larvae, which were freshly isolated from the pleural cavity of an infected rodent, were added to wells of a microtitre plate containing a nutrient medium and the test compound in DMSO. Compounds were tested in concentration-response assay in duplicate. Larvae exposed to DMSO and no test compounds were used as negative controls. Larvae were evaluated after 72 h of incubation with the compound. Efficacy was determined as the reduction of motility in comparison to the negative control. Based on the evaluation of a wide concentration range, concentration-response curves as well as ECso-values were calculated.

Sequence of C. elegans Slo-1a (Q95V25 whole entry): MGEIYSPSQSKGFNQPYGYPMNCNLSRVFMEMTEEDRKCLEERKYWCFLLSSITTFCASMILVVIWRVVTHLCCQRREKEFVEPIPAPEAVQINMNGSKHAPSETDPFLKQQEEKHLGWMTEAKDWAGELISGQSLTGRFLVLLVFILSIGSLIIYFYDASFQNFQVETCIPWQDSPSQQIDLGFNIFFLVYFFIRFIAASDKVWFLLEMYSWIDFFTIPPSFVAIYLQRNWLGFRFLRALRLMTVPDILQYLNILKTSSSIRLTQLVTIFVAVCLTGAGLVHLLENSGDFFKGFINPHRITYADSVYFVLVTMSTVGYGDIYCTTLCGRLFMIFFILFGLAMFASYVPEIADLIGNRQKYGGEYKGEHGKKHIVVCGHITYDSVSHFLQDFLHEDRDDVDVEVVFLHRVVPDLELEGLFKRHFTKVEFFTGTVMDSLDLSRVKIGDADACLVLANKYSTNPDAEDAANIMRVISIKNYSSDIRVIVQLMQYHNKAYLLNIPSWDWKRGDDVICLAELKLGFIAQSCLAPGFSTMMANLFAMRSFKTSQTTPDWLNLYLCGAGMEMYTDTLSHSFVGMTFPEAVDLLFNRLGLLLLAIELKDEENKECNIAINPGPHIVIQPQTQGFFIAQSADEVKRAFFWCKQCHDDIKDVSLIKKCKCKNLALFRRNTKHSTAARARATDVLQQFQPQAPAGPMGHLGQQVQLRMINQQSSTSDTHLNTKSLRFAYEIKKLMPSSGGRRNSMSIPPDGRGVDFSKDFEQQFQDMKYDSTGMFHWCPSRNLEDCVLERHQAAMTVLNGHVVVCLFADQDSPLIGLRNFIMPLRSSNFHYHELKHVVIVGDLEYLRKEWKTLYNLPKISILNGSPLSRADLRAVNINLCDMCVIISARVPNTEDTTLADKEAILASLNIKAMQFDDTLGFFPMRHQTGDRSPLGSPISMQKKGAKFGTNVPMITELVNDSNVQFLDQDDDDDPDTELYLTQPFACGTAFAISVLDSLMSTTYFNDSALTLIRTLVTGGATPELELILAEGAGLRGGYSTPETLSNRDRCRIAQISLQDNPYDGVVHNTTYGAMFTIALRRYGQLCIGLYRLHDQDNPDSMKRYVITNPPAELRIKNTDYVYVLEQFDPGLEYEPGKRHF

Compound	chromatographic logP [1]	EC50 (C. elegans Slo-1a) [nM]	EC50 [2] [µg/mL]	inhibition at 10 µg/mL [3] [%]	EC50 [4] [µg/mL]	inhibition at 1 µg/mL [3] [%]	EC50 [5] [µg/mL]
Cc1nn2c(C(C)C)c(C(=O)N[C@H]3CCOc4ccccc43)cnc2c1-c1cccc(OC(C)C)c1F [Example 188]	4.79	12.6	< 1	> 80			
Cc1nn2c(C(C)C)c(C(=O)N[C@H]3CCOc4ccccc43)cnc2c1-c1ccc(Br)cc1 [Example 206]	5.02	12.6	< 1	> 80			
Cc1nn2c(C(C)C)c(C(=O)N[C@H]3CCc4ccccc43)cnc2c1-c1ncc(Cl)cc1Cl [Example 209]	4.51	1.26	< 0.1	> 80	< 0.1	> 80	
CC(C)c1c(C(=O)N[C@H]2CCOc3ccccc32)cnc2c(-c3cc(Cl)cc(Cl)c3)c(S(C)(=O)=O)nn12 [Example 219]	4.16	20	< 1	> 80			
COc1ccc(-c2c(C)nn3c(C(C)C)c(C(=O)N[C@H]4CCOc5ccccc54)cnc23)cc1OC [Example 242]	3.9	79.4	< 10	> 80			
Cc1nn2c(C(C)C)c(C(=O)N[C@H]3CCOc4ccccc43)cnc2c1-c1cccc2c1OC(F)(F)O2 [Example 257]	4.87	6.31	< 0.1	> 80			
Cc1nn2c(C(C)C)c(C(=O)N[C@H]3CCOc4ccccc43)cnc2c1-c1ccc(F)c2c1OCO2 [Example 263]	4.13	1.58	< 0.1	> 80	< 0.1	> 80	
Cc1nn2c(C(C)C)c(C(=O)N[C@H]3CCCc4ccccc43)cnc2c1-c1cc(Cl)cc(Cl)c1F [Example 265]	6.01	2.51	< 1	> 80			
Cc1nn2c(C(C)C)c(C(=O)N[C@H]3CCc4ccccc43)cnc2c1-c1ccc(F)c(C(F)(F)F)c1 [Example 294]	5.36	50.1	< 10	> 80			
CCn1cc(-c2c(C)nn3c(C(C)C)c(C(=O)N[C@H]4CCc5ccccc54)cnc23)cn1 [Example 374]	3.44	50.1	< 10	> 80			
Cc1nn2c(C(C)C)c(C(=O)N[C@H]3CCc4ccccc43)cnc2c1-c1cnn(CC2CC2)c1 [Example 376]	3.83	7.94	< 10	> 80			
Cc1nn2c(C(C)C)c(C(=O)N[C@H]3CCc4ccccc43)cnc2c1-c1cnn(CC(F)F)c1 [Example 377]	3.49	15.8	< 10	> 80			
COCc1cccc(-c2c(C)nn3c(C(C)C)c(C(=O)N[C@H]4CCOc5ccccc54)cnc23)c1 [Example 392]	4.16	10	< 0.1	> 80			
Cc1nn2c(C(C)C)c(C(=O)N[C@H]3CCOc4ccccc43)cnc2c1-c1cccc(N(C)C)c1 [Example 393]	3.64	10	< 0.1	> 80			
Cc1nn2c(C3CC3)c(C(=O)N[C@H]3CCc4ccccc43)cnc2c1-c1c(F)cccc1F [Example 405]	3.66	3.16	< 0.1		< 0.1		< 0.1
Cc1nn2c(C(C)C)c(C(=O)N[C@H]3CCOc4ccccc43)cnc2c1-c1cnn(CC2CC2)c1 [Example 419]	3.59	7.94	< 10	> 80			
Cc1nn2c(C3CC3)c(C(=O)N[C@H]3CCc4ccccc43)cnc2c1-c1cc(F)ccc1F [Example 422]	3.84	3.98	< 0.1		< 0.1		< 0.1
Cc1nn2c(C3CC3)c(C(=O)N[C@H]3CCc4ccccc43)cnc2c1-c1cccc(F)c1F [Example 424]	3.84	2.51	< 0.1		< 0.1		< 0.1
Cc1nn2c(C3CC3)c(C(=O)N[C@H]3CCc4ccccc43)cnc2c1-c1c(F)ccc(F)c1F [Example 437]	3.83	1.58	< 0.1		< 0.1		< 0.1
Cc1nn2c(C3CC3)c(C(=O)N[C@H]3CCc4ccccc43)cnc2c1-c1c(F)cc(F)cc1F [Example 438]	3.87	1.26	< 0.1		< 0.1		< 0.1
Cc1nn2c(C(C)C)c(C(=O)N[C@H]3CCOc4ccccc43)cnc2c1-c1cccc(N2CC(F)(F)C2)c1 [Example 440]	4.64	12.6	< 1	> 80			
COCc1cccc(-c2c(C)nn3c(C4CC4)c(C(=O)N[C@H]4CCOc5ccccc54)cnc23)c1 [Example 451]	3.43	7.94	< 1	> 80			
Cc1nn2c(C3CC3)c(C(=O)N[C@H]3CCOc4ccccc43)cnc2c1-c1ccccc1Cl [Example 452]	3.64	2.51	< 0.1		< 0.1		< 0.1
Cc1nn2c(C3CC3)c(C(=O)N[C@H]3CCOc4ccccc43)cnc2c1-c1cccc(F)c1F [Example 457]	3.61	1.26	< 0.1		< 0.1		< 0.1
Cc1nn2c(C3CC3)c(C(=O)N[C@H]3CCOc4ccccc43)cnc2c1-c1c(F)cccc1Cl [Example 458]	3.65	1.58	< 0.1		< 0.1		< 0.1
Cc1nn2c(C(C)C)c(C(=O)N[C@H]3CCOc4ccccc43)cnc2c1-c1cccc(N2CC(F)C2)c1 [Example 459]	4.36	10	< 1	> 80			
Cc1nn2c(C3CC3)c(C(=O)N[C@H]3CCOc4ccccc43)cnc2c1-c1cc(Cl)cc(C(F)(F)F)c1 [Example 465]	5.11	10	< 0.1		< 0.1		< 0.1
Cc1nn2c(C3CC3)c(C(=O)N[C@H]3CCOc4ccccc43)cnc2c1-c1cnn(CC2CC2)c1 [Example 470]	2.92	7.94	< 10	> 80			
Cc1nn2c(N3CCOCC3)c(C(=O)N[C@H]3CCOc4ccccc43)cnc2c1-c1cccc(F)c1F [Example 534]	4.32	3.16	< 0.1		< 0.1		< 0.1
Cc1nn2c(N3CCOCC3)c(C(=O)N[C@H]3CCOc4ccccc43)cnc2c1-c1c(F)ccc(F)c1F [Example 535]	3.29	2.51	< 0.1		< 0.1		< 0.1
